Measurements as given in US9868736B2, “Deubiquitinase inhibitors and methods for use of the same” (THE REGENTS OF THE UNIVERSITY OF MICHIGAN, priority 2013, dated 2018).
In brackets after ≈: the same amount, converted by molar mass. Like-named read-outs stand apart in the source and are kept apart here.

What was measured:
[1] = background statement; cited from earlier work
[2] = target: T1, catalytic domain of Usp9x (Usp9xCD) (Homo sapiens, UniProt Q93008); test: Usp9xCD Ub-AMC enzyme assay; format: biochemical; conditions: 300 nM Usp9xCD, 30 min at 37° C. with inhibitor, 1.5 μM Ub-AMC
T1 construct: DNA corresponding to amino acids 1553-1960 of human Usp9x; His6-Smt3 (SUMO) fusion tag, ULP1-cleavable (N, cleaved yes); made in house; host or cells: E. coli
T1 sequence (Q93008 1553-1960): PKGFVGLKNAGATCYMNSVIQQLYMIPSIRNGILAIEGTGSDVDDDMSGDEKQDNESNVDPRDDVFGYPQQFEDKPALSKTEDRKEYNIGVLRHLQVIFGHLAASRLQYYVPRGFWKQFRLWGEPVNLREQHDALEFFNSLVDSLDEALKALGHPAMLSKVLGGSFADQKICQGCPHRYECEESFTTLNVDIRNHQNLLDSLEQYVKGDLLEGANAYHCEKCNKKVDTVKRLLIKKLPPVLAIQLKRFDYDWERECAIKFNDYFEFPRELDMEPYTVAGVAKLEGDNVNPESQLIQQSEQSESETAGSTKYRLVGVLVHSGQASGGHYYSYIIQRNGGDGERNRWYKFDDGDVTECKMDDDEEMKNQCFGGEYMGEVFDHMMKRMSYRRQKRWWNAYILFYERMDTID
Method: A series of chemical modifications were initiated to increase our structure activity relationship (SAR) analysis of inhibitors. […] The DNA was cloned into a ULP1-protease cleavable N-terminal His6-Smt3-fusion tag expression vector, derived from pET-28. Protein expression was induced at OD600 2.0, in TB media with Kanamycin overnight at 16° C. Cells were harvested and flash frozen before use. […] Protein was concentrated to roughly 20-40 mg/ml before aliquots were flash-frozen. All steps were performed in the presence of reducing agents, either BME, DTT, or TCEP.
Purified recombinant enzyme in buffer containing 2 mM DTT was buffer exchanged into 25 mM Tris-HCl, 50 mM NaCl and 1 mg/ml BSA using a spin column. […] IC50 values were estimated by integrating the slope of each reaction using GraphPad 6.
Two hundred and ten (210) novel chemical structures were screened for Usp9xCD inhibitory activity using this assay. […] Fluorescent scans were used to assess Usp9xCD inhibitory activity in this enzyme assay for all compounds of interest. Each assay was performed in duplicate and the linear region of each reaction curve was used to calculate IC50 values for Usp9xCD inhibition which are tabulated in Table 1.

Usp9x = Usp9x (Homo sapiens, UniProt Q93008); test: DUB activity (HA-Ub vinyl-sulfone labelling) in lysates of treated intact cells; format: cell-based; parameters: endogenous in cells; host or cells: Z138 lymphoma, MM1.S/MM1.ST myeloma, primary PCL cells, A375 and vemurafenib-resistant A375 melanoma; conditions: Z138 lymphoma cells, 1.25, 2.5 and 5 μM, 4 hours
Sequence of Usp9x (Q93008 whole entry): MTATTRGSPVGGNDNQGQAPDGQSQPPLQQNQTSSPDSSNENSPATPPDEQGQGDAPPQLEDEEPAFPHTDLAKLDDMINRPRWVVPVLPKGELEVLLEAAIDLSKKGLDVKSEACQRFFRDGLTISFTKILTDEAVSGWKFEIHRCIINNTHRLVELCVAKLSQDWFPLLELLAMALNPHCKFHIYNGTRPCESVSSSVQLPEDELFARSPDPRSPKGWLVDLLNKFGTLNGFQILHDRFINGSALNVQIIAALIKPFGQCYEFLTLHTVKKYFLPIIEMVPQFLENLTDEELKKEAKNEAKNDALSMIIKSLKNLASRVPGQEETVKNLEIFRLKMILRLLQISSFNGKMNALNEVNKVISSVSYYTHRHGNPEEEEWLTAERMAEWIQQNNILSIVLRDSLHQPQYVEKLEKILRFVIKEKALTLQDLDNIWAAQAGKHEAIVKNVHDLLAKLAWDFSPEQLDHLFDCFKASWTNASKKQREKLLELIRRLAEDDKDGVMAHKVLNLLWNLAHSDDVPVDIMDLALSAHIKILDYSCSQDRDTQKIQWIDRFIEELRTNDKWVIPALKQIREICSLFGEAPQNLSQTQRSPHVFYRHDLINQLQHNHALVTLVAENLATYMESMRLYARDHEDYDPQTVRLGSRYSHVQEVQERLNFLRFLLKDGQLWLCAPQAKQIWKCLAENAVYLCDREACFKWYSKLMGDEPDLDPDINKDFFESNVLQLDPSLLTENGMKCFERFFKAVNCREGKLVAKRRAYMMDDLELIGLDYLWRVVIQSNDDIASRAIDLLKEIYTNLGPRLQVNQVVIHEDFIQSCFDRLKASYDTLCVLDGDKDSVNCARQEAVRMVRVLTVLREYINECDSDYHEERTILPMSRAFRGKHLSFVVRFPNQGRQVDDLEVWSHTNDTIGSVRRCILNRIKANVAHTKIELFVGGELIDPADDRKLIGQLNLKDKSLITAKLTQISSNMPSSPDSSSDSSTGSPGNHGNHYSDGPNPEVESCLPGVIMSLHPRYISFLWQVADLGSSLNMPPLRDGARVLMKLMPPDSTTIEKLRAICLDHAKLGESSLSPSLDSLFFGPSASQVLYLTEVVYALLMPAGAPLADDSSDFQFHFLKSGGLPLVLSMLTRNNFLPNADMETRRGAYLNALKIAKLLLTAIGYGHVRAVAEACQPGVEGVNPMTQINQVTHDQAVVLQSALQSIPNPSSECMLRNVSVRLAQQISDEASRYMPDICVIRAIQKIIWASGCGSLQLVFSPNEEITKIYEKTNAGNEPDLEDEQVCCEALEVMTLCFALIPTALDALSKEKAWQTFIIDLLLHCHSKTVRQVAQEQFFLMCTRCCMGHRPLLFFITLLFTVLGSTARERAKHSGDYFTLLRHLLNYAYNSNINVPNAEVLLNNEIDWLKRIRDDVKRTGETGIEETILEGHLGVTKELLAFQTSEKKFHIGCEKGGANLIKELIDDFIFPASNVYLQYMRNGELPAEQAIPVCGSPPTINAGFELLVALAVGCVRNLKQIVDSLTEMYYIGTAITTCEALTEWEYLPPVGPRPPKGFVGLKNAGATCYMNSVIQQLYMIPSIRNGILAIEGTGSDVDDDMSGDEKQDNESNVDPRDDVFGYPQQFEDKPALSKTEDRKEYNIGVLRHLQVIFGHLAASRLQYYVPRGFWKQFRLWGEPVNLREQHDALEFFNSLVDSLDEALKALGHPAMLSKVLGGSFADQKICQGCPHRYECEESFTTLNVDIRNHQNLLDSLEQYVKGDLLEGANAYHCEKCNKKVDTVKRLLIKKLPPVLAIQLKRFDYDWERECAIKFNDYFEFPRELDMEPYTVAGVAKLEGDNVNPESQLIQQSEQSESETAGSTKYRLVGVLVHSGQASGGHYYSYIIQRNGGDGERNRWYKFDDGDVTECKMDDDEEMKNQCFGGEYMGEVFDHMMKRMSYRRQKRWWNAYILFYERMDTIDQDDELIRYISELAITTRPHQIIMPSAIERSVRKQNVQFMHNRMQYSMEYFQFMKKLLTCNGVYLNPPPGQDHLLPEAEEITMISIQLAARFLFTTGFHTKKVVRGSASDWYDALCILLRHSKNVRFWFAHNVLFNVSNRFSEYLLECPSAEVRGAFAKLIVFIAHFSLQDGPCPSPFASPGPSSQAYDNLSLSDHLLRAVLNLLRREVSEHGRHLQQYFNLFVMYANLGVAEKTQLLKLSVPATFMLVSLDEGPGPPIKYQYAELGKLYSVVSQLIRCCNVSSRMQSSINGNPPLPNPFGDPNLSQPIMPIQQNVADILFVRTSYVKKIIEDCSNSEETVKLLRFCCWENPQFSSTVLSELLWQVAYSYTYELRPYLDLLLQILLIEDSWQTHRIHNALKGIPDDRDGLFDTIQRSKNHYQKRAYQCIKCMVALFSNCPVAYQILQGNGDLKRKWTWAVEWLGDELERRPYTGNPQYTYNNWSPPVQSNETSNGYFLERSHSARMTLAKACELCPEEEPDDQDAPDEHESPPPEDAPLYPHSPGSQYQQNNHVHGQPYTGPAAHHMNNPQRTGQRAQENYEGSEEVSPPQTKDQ
Method: In brief, control and treated cells were lysed by sonication in DUB assay buffer [50 mM Tris-HCl (pH 7.5), 5 mM MgCl2, 250 mM sucrose, 1 mM PMSF, 1× Roche proteinase inhibitory cocktail] and 20 μg of protein from the supernatant fraction (after a 14,000×g spin) were incubated with 200 nM HA-Ub vinyl-sulfone (Boston Biochem) in a final volume of 20 μl. After 90 min at 37° C., reactions were stopped with the addition of 5×-sample buffer. DUB activity was detected by SDS-PAGE resolution of the protein followed by nitrocellulose membrane transfer and immunoblotting with anti-HA.
The time required for G9-mediated Usp9x inhibition in intact multiple myeloma (MM1.S) cells and primary tumor cells from a patient with plasma cell leukemia (PCL) was investigated. MM1.ST (FIG. 1, left) or PCL (FIG. 1, right) cells were treated with 5 μM of compound for the time indicated before Usp9x activity was assessed as described above.

Mcl-1, PARP = test: Mcl-1 level and PARP cleavage in treated tumor cells; format: cell-based; conditions: Z138 lymphoma cells, 1.25, 2.5 and 5 μM, 4 hours
aqueous solubility = format: physicochemical
[3] = system: vemurafenib sensitive and resistant A375 melanoma cells; test: in vitro anti-tumor efficacy in A375 melanoma cells; format: cell-based; conditions: A375 cells, Usp5 knockdown
Description: Similar results were obtained in A375R Usp5 KD cells treated with a MEK inhibitor.

| solubility (aqueous solubility) [µM] | reduction of the vemurafenib IC50 concentration by Usp5 KD [3] | SMILES | solubility [1] | IC50 [2] [µM] | Usp9x activity in intact cells (Usp9x) | level of Mcl-1 (Mcl-1, PARP) |
| --- | --- | --- | --- | --- | --- | --- |
| 2.6 (≈ 0.999 µg/mL) |  | CCC[C@H](NC(=O)/C(C#N)=C/c1cccc(Br)n1)c1ccccc1 [WP1130, reference compound] | poor solubility | 4.8 | able to inhibit Usp9x activity in intact cells | reduce the level of a downstream target of Usp9x |
|  |  | CCCC(NC(=O)/C(C#N)=C/c1nc(Cl)ccc1Cl)c1ccc(OCCN2CCOCC2)cc1 (stereo not shown) [drawing 26] |  | 1.6 |  |  |
|  | about 2 fold | CCCS(=O)(=O)Nc1ccc(F)c(C(=O)c2c[nH]c3ncc(-c4ccc(Cl)cc4)cc23)c1F [vemurafenib, reference compound] |  |  |  |  |
